Laboratory results from ChEMBL document CHEMBL1149739, “Sarcochromenol sulfates A-C and sarcohydroquinone sulfates A-C, new natural products from the sponge Sarcotragus spinulosus” (J Nat Prod, 1992).
Structures can show the parent of a compound that is named as a salt.

Experiment: Inhibition of rat brain Na(+)/K(+) ATPase

IC50 [µM] | Structure (SMILES)
1.4 | CC(C)=CCC/C(C)=C/CC/C(C)=C/CC/C(C)=C/CC/C(C)=C/CC/C(C)=C/CC/C(C)=C/Cc1cc(OS(=O)(=O)O)ccc1OS(=O)(=O)O [DISODIUM SARCOHYDROQUINONE SULFATE B]
1.6 | CC(C)=CCC/C(C)=C/CC/C(C)=C/CC/C(C)=C/CC/C(C)=C/CCC1(C)C=Cc2cc(OS(=O)(=O)O)ccc2O1 (configuration not stated) [SODIUM SARCOCHROMENOL SULFATE A]
